According to patent publication US11311520B2, “Substituted dihydroimidazopyridinediones as MKNK1 and MKNK2 inhibitors” (Bayer Pharma Aktiengesellschaft, priority 2017, dated 2022):

Each molecule was assayed against human full-length MKNK1 (Homo sapiens (Human), UniProt Q9BUB5, T344D) (assay: MKNK1 kinase high ATP assay (TR-FRET)). Conditions: 2 mM ATP, 15 min preincubation with enzyme, GST-MKNK1 (T344D).
Type: biochemical
How it was run: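 GST-tagged full-length human MKNK1 (1-424, T344D, baculovirus-expressed) preincubated 15 min at 22 °C with compound, then reacted 30 min at 22 °C with 2 mM ATP and 0.06 μM biotinylated peptide (final) in HEPES pH 7.5. Phospho-substrate by TR-FRET (665/622 nm ratio), normalised to no-inhibitor and no-enzyme controls.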

human full-length MKNK1, sequence (Q9BUB5 other isoform, or with tags, fused parts or gaps T344D): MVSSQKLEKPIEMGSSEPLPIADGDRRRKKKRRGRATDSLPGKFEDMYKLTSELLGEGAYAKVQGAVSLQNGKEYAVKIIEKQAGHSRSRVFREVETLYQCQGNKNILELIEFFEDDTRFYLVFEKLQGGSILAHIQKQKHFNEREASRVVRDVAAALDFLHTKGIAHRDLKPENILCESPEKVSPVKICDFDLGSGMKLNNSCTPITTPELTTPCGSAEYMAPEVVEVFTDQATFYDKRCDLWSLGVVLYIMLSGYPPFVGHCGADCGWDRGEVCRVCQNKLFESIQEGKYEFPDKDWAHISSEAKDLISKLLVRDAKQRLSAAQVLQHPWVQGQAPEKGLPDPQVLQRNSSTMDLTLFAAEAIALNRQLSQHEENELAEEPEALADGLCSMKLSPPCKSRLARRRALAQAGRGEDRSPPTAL

In order of rising IC50:
1. Cc1cc(Nc2ncnc3[nH]ccc23)c(=O)n2c1C(=O)NC21CSC1 [Example 178, 8-methyl-6-[(7H-pyrrolo[2,3-d]pyrimidin-4-yl)amino]-2H-spiro[imidazo[1,5-a]pyridine-3,3′-thietane]-1,5-dione]  1.1 nM
2. Cc1cc(Nc2ncnc3[nH]cnc23)c(=O)n2c1C(=O)NC21CCC1 [Example 159, 8′-Methyl-6′-(9H-purin-6-ylamino)-2′H-spiro[cyclobutane-1,3′-imidazo[1,5-a]pyridine]-1′,5′-dione]  2.1 nM
3. Cc1cc(Nc2ncnc3[nH]ncc23)c(=O)n2c1C(=O)NC21CCC1 [Example 160, 8′-Methyl-6′-(1H-pyrazolo[3,4-d]pyrimidin-4-ylamino)-2′H-spiro[cyclobutane-1,3′-imidazo[1,5-a]pyridine]-1′,5′-dione]  2.9 nM
4. Cc1cc(Nc2ncnc3sc(C(=O)N4CC[C@@H](N(C)C)C4)cc23)c(=O)n2c1C(=O)NC21CCC1 [Example 156, 6′-[(6-{[(3R)-3-(Dimethylamino)pyrrolidin-1-yl]carbonyl}thieno[2,3-d]pyrimidin-4-yl)amino]-8′-methyl-2′H-spiro[cyclobutane-1,3′-imidazo[1,5-a]pyridine]-1′,5′-dione]  4.3 nM
5. Cc1cc(Nc2ncnc3sccc23)c(=O)n2c1C(=O)NC21CSC1 [Example 177, 8-methyl-6-[(thieno[2,3-d]pyrimidin-4-yl)amino]-2H-spiro[imidazo[1,5-a]pyridine-3,3′-thietane]-1,5-dione]  4.3 nM
6. Cc1cc(Nc2ncnc3sc(C(=O)N4C[C@H]5C[C@@H]4CO5)cc23)c(=O)n2c1C(=O)NC21CCC1 [Example 158, 8′-Methyl-6′-({6-[(1R,4R)-2-oxa-5-azabicyclo[2.2.1]hept-5-ylcarbonyl]thieno[2,3-d]pyrimidin-4-yl}amino)-2′H-spiro[cyclobutane-1,3′-imidazo[1,5-a]pyridine]-1′,5′-dione]  5 nM
7. Cc1cc(Nc2ncnc3sc(C(=O)N4CC(C#N)C4)cc23)c(=O)n2c1C(=O)NC21CCC1 [Example 155, 1-({4-[(8′-Methyl-1′,5′-dioxo-1′,5′-dihydro-2′H-spiro[cyclobutane-1,3′-imidazo[1,5-a]pyridin]-6′-yl)amino]thieno[2,3-d]pyrimidin-6-yl}carbonyl)azetidine-3-carbonitrile]  5.3 nM
8. Cc1cc(Nc2ncnc3cccc(C)c23)c(=O)n2c1C(=O)NC21CCC1 [Example 170, 8′-methyl-6′-[(5-methylquinazolin-4-yl)amino]-2′H-spiro[cyclobutane-1,3′-imidazo[1,5-a]pyridine]-1′,5′-dione]  5.3 nM
9. Cc1cc(Nc2ncnc3cc(Cl)ccc23)c(=O)n2c1C(=O)NC21CCCC1 [Example 186, 6′-[(7-chloroquinazolin-4-yl)amino]-8′-methyl-2′H-spiro[cyclopentane-1,3′-imidazo[1,5-a]pyridine]-1′,5′-dione]  5.5 nM
10. Cc1cc(Nc2ncnc3ccc(Cl)cc23)c(=O)n2c1C(=O)NC21CCC1 [Example 167, 6′-[(6-Chloroquinazolin-4-yl)amino]-8′-methyl-2′H-spiro[cyclobutane-1,3′-imidazo[1,5-a]pyridine]-1′,5′-dione]  5.7 nM
11. Cc1cc(Nc2ncnc3scnc23)c(=O)n2c1C(=O)NC21CSC1 [Example 173, 8-methyl-6-[([1,3]thiazolo[5,4-d]pyrimidin-7-yl)amino]-2H-spiro[imidazo[1,5-a]pyridine-3,3′-thietane]-1,5-dione]  5.8 nM
12. Cc1cc(Nc2ncnc3ccc(F)cc23)c(=O)n2c1C(=O)NC21CCC1 [Example 171, 6′-[(6-fluoroquinazolin-4-yl)amino]-8′-methyl-2′H-spiro[cyclobutane-1,3′-imidazo[1,5-a]pyridine]-1′,5′-dione]  6 nM
13. Cc1cc(Nc2ncnc3ccccc23)c(=O)n2c1C(=O)NC21CCCC1 [Example 187, 8′-methyl-6′-[(quinazolin-4-yl)amino]-2′H-spiro[cyclopentane-1,3′-imidazo[1,5-a]pyridine]-1′,5′-dione]  7.3 nM
14. Cc1cc(Nc2ncnc3sc(C(=O)N4CCC(N(C)C)CC4)cc23)c(=O)n2c1C(=O)NC21CCC1 [Example 157, 6′-[(6-{[4-(Dimethylamino)piperidin-1-yl]carbonyl}thieno[2,3-d]pyrimidin-4-yl)amino]-8′-methyl-2′H-spiro[cyclobutane-1,3′-imidazo[1,5-a]pyridine]-1′,5′-dione]  7.9 nM
15. Cc1cc(Nc2ncnc3ccc(F)cc23)c(=O)n2c1C(=O)NC21CCCC1 [Example 185, 6′-[(6-fluoroquinazolin-4-yl)amino]-8′-methyl-2′H-spiro[cyclopentane-1,3′-imidazo[1,5-a]pyridine]-1′,5′-dione]  7.9 nM
16. Cc1cc(Nc2ncnc3ccccc23)c(=O)n2c1C(=O)NC21CCC1 [Example 172, 8′-methyl-6′-[(quinazolin-4-yl)amino]-2′H-spiro[cyclobutane-1,3′-imidazo[1,5-a]pyridine]-1′,5′-dione]  12.1 nM
17. Cc1cc(Nc2ncnc3cccc(C)c23)c(=O)n2c1C(=O)NC21CSC1 [Example 174, 8-methyl-6-[(5-methylquinazolin-4-yl)amino]-2H-spiro[imidazo[1,5-a]pyridine-3,3′-thietane]-1,5-dione]  12.8 nM
18. Cc1cc(Nc2ncnc3cccc(C)c23)c(=O)n2c1C(=O)NC21CCCC1 [Example 183, 8′-methyl-6′-[(5-methylquinazolin-4-yl)amino]-2′H-spiro[cyclopentane-1,3′-imidazo[1,5-a]pyridine]-1′,5′-dione]  13 nM
19. Cc1cc(Nc2ncnc3ccc(Cl)cc23)c(=O)n2c1C(=O)NC21CSC1 [Example 175, 6-[(6-chloroquinazolin-4-yl)amino]-8-methyl-2H-spiro[imidazo[1,5-a]pyridine-3,3′-thietane]-1,5-dione]  14.4 nM
20. Cc1cc(Nc2ncnc3sc(C(=O)O)c(C)c23)c(=O)n2c1C(=O)NC21CCC1 [Example 169]  15.7 nM
21. Cc1cc(Nc2ncnc3c2CN(C(=O)OC(C)(C)C)C3)c(=O)n2c1C(=O)NC2(C)C [Example 163, tert-Butyl 4-[(3,3,8-trimethyl-1,5-dioxo-1,2,3,5-tetrahydroimidazo[1,5-a]pyridin-6-yl)amino]-5,7-dihydro-6H-pyrrolo[3,4-d]pyrimidine-6-carboxylate]  16.8 nM
22. Cc1cc(Nc2ncnc3ccc(F)cc23)c(=O)n2c1C(=O)NC21CSC1 [Example 176, 6-[(6-fluoroquinazolin-4-yl)amino]-8-methyl-2H-spiro[imidazo[1,5-a]pyridine-3,3′-thietane]-1,5-dione]  19 nM
23. Cc1cc(Nc2ncnc3c2CN(C(=O)OC(C)(C)C)C3)c(=O)n2c1C(=O)NC21CCC1 [Example 162, tert-Butyl 4-[(8′-methyl-1′,5′-dioxo-1′,5′-dihydro-2′H-spiro[cyclobutane-1,3′-imidazo[1,5-a]pyridin]-6′-yl)amino]-5,7-dihydro-6H-pyrrolo[3,4-d]pyrimidine-6-carboxylate]  21.7 nM
24. Cc1cc(Nc2ncnc3ccc(C(F)(F)F)cc23)c(=O)n2c1C(=O)NC21CCCC1 [Example 184, 8′-methyl-6′-{[6-(trifluoromethyl)quinazolin-4-yl]amino}-2′H-spiro[cyclopentane-1,3′-imidazo[1,5-a]pyridine]-1′,5′-dione]  34 nM
25. Cc1cc(Nc2ncnc3ccc(Cl)cc23)c(=O)n2c1C(=O)NC2(C)C [Example 166, 6-[(6-Chloroquinazolin-4-yl)amino]-3,3,8-trimethyl-2,3-dihydroimidazo[1,5-a]pyridine-1,5-dione]  45.9 nM
26. Cc1cc(Nc2ncnc3cccc(C)c23)c(=O)n2c1C(=O)N[C@]21CC[C@@](O)(C(F)(F)F)CC1 [Example 188, (cis)-4-hydroxy-8′-methyl-6′-[(5-methylquinazolin-4-yl)amino]-4-(trifluoromethyl)-2′H-spiro[cyclohexane-1,3′-imidazo[1,5-a]pyridine]-1′,5′-dione]  47 nM
27. Cc1cc(Nc2ncnc3c2CNC3)c(=O)n2c1C(=O)NC21CCC1 [Example 168, 6′-(6,7-Dihydro-5H-pyrrolo[3,4-d]pyrimidin-4-ylamino)-8′-methyl-2′H-spiro[cyclobutane-1,3′-imidazo[1,5-a]pyridine]-1′,5′-dione]  49.5 nM
28. Cc1cc(Nc2ncnc3ccc(Cl)cc23)c(=O)n2c1C(=O)NC21CS(=O)(=O)C1 [Example 180, 6-[(6-chloroquinazolin-4-yl)amino]-8-methyl-2H-spiro[imidazo[1,5-a]pyridine-3,3′-thietane]-1,5-dione 1′,1′-dioxide]  104 nM
29. Cc1cc(Nc2ncnc3cc(Cl)ccc23)c(=O)n2c1C(=O)NC21CS(=O)(=O)C1 [Example 181, 6-[(7-chloroquinazolin-4-yl)amino]-8-methyl-2H-spiro[imidazo[1,5-a]pyridine-3,3′-thietane]-1,5-dione 1′,1′-dioxide]  104 nM
30. Cc1cc(Nc2ncnc3cccc(C)c23)c(=O)n2c1C(=O)NC21CS(=O)(=O)C1 [Example 179, 8-methyl-6-[(5-methylquinazolin-4-yl)amino]-2H-spiro[imidazo[1,5-a]pyridine-3,3′-thietane]-1,5-dione 1′,1′-dioxide]  124 nM
31. Cc1cc(Nc2ncnc3c2CNC3)c(=O)n2c1C(=O)NC2(C)C [Example 165, 6-(6,7-Dihydro-5H-pyrrolo[3,4-d]pyrimidin-4-ylamino)-3,3,8-trimethyl-2,3-dihydroimidazo[1,5-a]pyridine-1,5-dione]  168 nM
32. Cc1cc(Nc2ncnc3ccccc23)c(=O)n2c1C(=O)NC21CS(=O)(=O)C1 [Example 182, 8-methyl-6-(quinazolin-4-ylamino)-2H-spiro[imidazo[1,5-a]pyridine-3,3′-thietane]-1,5-dione 1′,1′-dioxide]  261 nM
33. Cc1cc(Nc2ncnc3scnc23)c(=O)n2c1C(=O)NC2(C)C [Example 164, 3,3,8-Trimethyl-6-([1,3]thiazolo[5,4-d]pyrimidin-7-ylamino)-2,3-dihydroimidazo[1,5-a]pyridine-1,5-dione]  383 nM
